Results: paper doi:10.1101/2025.11.19.689330v1 (bioRxiv, 2025)

Assays:
Type in all cases: cell-based, human
[1] = system: Golgi of HeLa cells; test: FRET co-assembly of 2 with quencher 7, Golgi fluorescence over 24 minutes; conditions: 2 (10 nM) with 7 (5, 10, 20 nM) or UBQ2-COOH (10, 20 nM)
[2] = system: Golgi of HeLa cells; test: BFA-induced Golgi disassembly in cells prelabeled with 2; conditions: HeLa cells prelabeled with 2 (10 nM, 30 min), BFA 10 μM
[3] = system: Golgi of HeLa cells; test: FRAP assay at the Golgi; conditions: 500 nM, after 30-minute treatment
[4] = system: Golgi of HeLa cells; test: Time-lapse CLSM of Golgi fluorescence build-up; conditions: over 24 minutes
[5] = system: Golgi of HeLa cells; test: CLSM Golgi labeling at ultralow concentrations; conditions: 4 hours

COc1cc(N=Nc2ccc([N+](=O)[O-])cc2)c(OC)cc1N=Nc1ccc(N(C)CCCC(=O)O)cc1 [UBQ2]
effect on Golgi fluorescence of 2 on co-treatment [1]: did not diminish Golgi fluorescence

C[C@H]1CCC/C=C/[C@@H]2C[C@H](O)C[C@H]2[C@H](O)/C=C/C(=O)O1 [BFA, brefeldin A]
time at which the Golgi begins to lose its defined morphology [2]: 5.5 minutes | time at which the Golgi collapses into the ER [2]: 6.5 min

CCCCCCCCCCCCC/C=C/[C@@H](O)[C@H](CO)NC(=O)CCCCC1=[N+]2C(=Cc3c(C)cc(C)n3[B-]2(F)F)C=C1 [BODIPY-C5-Ceramide]
immobile fraction (IMf) at the Golgi [3]: 0.52 | Golgi fluorescence in time-lapse imaging at 10 nM [4]: no significant Golgi fluorescence | Golgi fluorescence at 10 nM ([5]; 10 nM): very dim fluorescence at the Golgi | Golgi localization at picomolar concentrations ([5]; picomolar concentrations (500 pM)): no detectable Golgi localization
